For experiment [1], the system named is Pseudomonas sp. isolated from infected middle-ear fluid. The experiment in a line: Activity on paper disks and comparison with antibiotics (inhibition zones). Format: cell-based. Particulars: Ampicillin 10 μg, Bacitracin 10 units, Chloramphenicol 30 μg, Erythromycin 15 μg, Tetracycline 30 μg, peptide on paper disk. How it is done: Activity was tested against a Pseudomonas sp. isolated from infected middle-ear fluid.

Experiment [2] relates to strain ST4SA. The experiment in a line: Antibiotic resistance of strain ST4SA (antibiotic discs, Oxoid). Format: cell-based, Enterococcus mundtii.
Experiment [3] deals with strain ST4SA. The experiment in a line: Resistance of E. mundtii ST4 against antibiotics and anti-inflammatory drugs. Format: cell-based, Enterococcus mundtii. Conditions: Ibuprofen 5, Aspirin 5, Promoxil 100, Cipadur 50, Cefasyn 100, Roxibidd 30, Doximal 20, Ciploxx 100, Utin 80, Rheugesic 4, Coxflam 1.5, K-fenak 5, Preflam 3 mg/ml.
In experiment [4] the test system is strain ST4SA. The experiment in a line: Growth of strain ST4SA in the presence of TMP-SMX and Metronidazole. Format: cell-based, Enterococcus mundtii. Particulars: for Number of viable cells of strain ST4SA: NAN Palargon, 18 h, 37° C., control 1 × 10^8. The protocol: Children with HIV/AIDS are treated with Trimethoprim-sulfamethoxazole (TMP-SMX) and/or Metronidazole to prevent diarrhea.

Experiment [5] relates to Lactobacillus sakei DSM 20017. The experiment in a line: Blocking of the Lipid II target site with vancomycin. Format: cell-based. Conditions: L. sakei DSM 20017, FIG. 26. An excerpt: To test this hypothesis, the Lipid II target site of Lactobacillus sakei DSM 20017 (sensitive to peptide ST 4SA) was blocked with vancomycin (see schematic presentation, FIG. 26). Vancomycin adheres to the amino acid side chain of the Lipid II molecule, which would, theoretically, prevent peptide ST4SA from binding to the same site (that is if Lipid II acts as receptor). […] The fact that peptide ST4SA binds to more than one anchoring site on the sensitive cell may explain why it has such a broad spectrum of antimicrobial activity (inhibitory to Gram-positive and Gram-negative bacteria).

The mark [6] stands for this setting: Pseudomonas, read-out: Diameter of inhibition zones.

Bridge positions count the residues as written; N and C are the ends. Square brackets hold non-standard residues; d marks the D form. Peptide text beside a SMILES is read from it. * marks the point of attachment. Ileψ(thiazoline)Cys = CC[C@H](C)[C@H](N)C1=N[C@H](C(=O)*)CS1; dOrn = NCCC[C@@H](N)C(=O)O

The values below come from patent US7951385B2, “Probiotic strain and antimicrobial peptide derived therefrom” (Cipla Medpro Research and Development (Pty) Ltd., priority 2006, dated 2011).

On to `CC1(C)S[C@@H]2[C@H](NC(=O)[C@H](N)c3ccccc3)C(=O)N2[C@H]1C(=O)O` [Ampicillin], for which the zone of inhibition at 10 µg/disc in experiment [1] (setting [6]) stood at 24 mm. Further, the “Inhibition zone of antibiotic on ST4” value in experiment [2] is “+++ (+++ = inhibition zone, diameter larger than 17 mm)”.
In the case of `CC(=O)Oc1ccccc1C(=O)O` [Aspirin], the “Inhibition zone of medicament on Strain ST4SA” value in experiment [3] was “+ (+ = diameters between 1 mm and 11 mm)”.
For the compound `CC[C@H](C)[C@H](N)C1=N[C@H](C(=O)N[C@@H](CC(C)C)C(=O)N[C@H](CCC(=O)O)C(=O)N[C@H](C(=O)N[C@H]2CCCCNC(=O)[C@H](CC(N)=O)NC(=O)[C@@H](CC(=O)O)NC(=O)[C@H](Cc3cnc[nH]3)NC(=O)[C@@H](Cc3ccccc3)NC(=O)[C@H]([C@@H](C)CC)NC(=O)[C@@H](CCCN)NC2=O)[C@@H](C)CC)CS1` [Bacitracin] ({Ileψ(thiazoline)Cys}-L[dE]IK[dOrn]I[dF]H[dD]N; lactam 4-C), the “Diameter of inhibition zones” value in experiment [1] is listed as 10 mm. In experiment [2], the “Inhibition zone of antibiotic on ST4” value is given as “++ (++ = inhibition zone, diameter 12 to 16 mm)”.
For the compound `Cc1nnc(SCC2=C(C(=O)O)N3C(=O)[C@@H](NC(=O)Cn4cnnn4)[C@H]3SC2)s1` [Cephazolin], in experiment [2], the “Inhibition zone of antibiotic on ST4” value is recorded as “+ (+ = inhibition zone, diameter 1 to 11 mm)”.
As to `O=C(N[C@H](CO)[C@H](O)c1ccc([N+](=O)[O-])cc1)C(Cl)Cl` [Chloramphenicol], the zone of inhibition at 30 µg/disc in experiment [1] (setting [6]) worked out at 28 mm. Further, the “Inhibition zone of antibiotic on ST4” value in experiment [2] is recorded as “+++ (+++ = inhibition zone, diameter larger than 17 mm)”.
With `O=C(O)c1cn(C2CC2)c2cc(N3CCNCC3)c(F)cc2c1=O` [Ciprofloxzcin], the “Inhibition zone of antibiotic on ST4” value in experiment [2] is “+++ (+++ = inhibition zone, diameter larger than 17 mm)”.
As to `Cc1onc(-c2ccccc2Cl)c1C(=O)N[C@@H]1C(=O)N2[C@@H]1SC(C)(C)[C@@H]2C(=O)O` [Cloxacillin], in experiment [2], the “Inhibition zone of antibiotic on ST4” value is “−” and the “Resistance of strain ST4SA to antibiotic” value is “resistant”.
With `CC[C@H]1OC(=O)[C@H](C)[C@@H](O[C@H]2C[C@@](C)(OC)[C@@H](O)[C@H](C)O2)[C@H](C)[C@@H](O[C@@H]2O[C@H](C)C[C@H](N(C)C)[C@H]2O)[C@](C)(O)C[C@@H](C)C(=O)[C@H](C)[C@@H](O)[C@]1(C)O` [Erythromycin], the “Diameter of inhibition zones” value in experiment [1] is recorded as “No zone”. For the same compound, in experiment [2], the “Inhibition zone of antibiotic on ST4” value was “+++ (+++ = inhibition zone, diameter larger than 17 mm)”.
Turning to `CC(C)Cc1ccc(C(C)C(=O)O)cc1` (stereo not shown) [Ibuprofen], the “Inhibition zone of medicament on Strain ST4SA” value in experiment [3] is “++ (++ = diameters between 12 mm and 16 mm)”.
Take `COc1cccc(OC)c1C(=O)N[C@@H]1C(=O)N2[C@@H]1SC(C)(C)[C@@H]2C(=O)O` [Methicillin]: in experiment [2], the “Inhibition zone of antibiotic on ST4” value is “−” and the “Resistance of strain ST4SA to antibiotic” value is “resistant”.
As to `Cc1ncc([N+](=O)[O-])n1CCO` [Metronidazole], the “Inhibition zone of antibiotic on ST4” value in experiment [2] is reported as “−”. For the same compound, the “Resistance of strain ST4SA to antibiotic” value in experiment [2] is on record as “resistant”. Also, the “Decrease of cell numbers of strain ST4SA” value in experiment [4] is on record as “four”. For the same compound, the “Number of viable cells of strain ST4SA” value was 1.3 × 10^4 in experiment [4] (Metronidazole 50 mg), 6 × 10^4 in experiment [4] (Metronidazole 100 mg) and 3 × 10^4 in experiment [4] (Metronidazole 200 mg).
For `CO[C@@H]1[C@@H](OC(N)=O)[C@@H](O)[C@H](Oc2ccc3c(O)c(NC(=O)c4ccc(O)c(CC=C(C)C)c4)c(=O)oc3c2C)OC1(C)C` [Novobiocin], the “Inhibition zone of antibiotic on ST4” value in experiment [2] is “+++ (+++ = inhibition zone, diameter larger than 17 mm)”.
`C[C@@H]1[C@H](O)[C@@H](C)/C=C/C=C/CC/C=C/C=C/C=C/C=C/C(O[C@H]2O[C@H](C)[C@@H](O)[C@H](N)[C@@H]2O)CC2O[C@](O)(CC(O)C(O)CCC(O)CC(O)CC(O)CC(=O)O[C@H]1C)CC(O)C2C(=O)O` (stereo partly shown) [Nystatin]: in experiment [2], the “Inhibition zone of antibiotic on ST4” value is “−” and the “Resistance of strain ST4SA to antibiotic” value is recorded as “resistant”.
In the case of `CC1COc2c(N3CCN(C)CC3)c(F)cc3c(=O)c(C(=O)O)cn1c23` (stereo not shown) [Oflaxacin], in experiment [2], the “Inhibition zone of antibiotic on ST4” value was “++ (++ = inhibition zone, diameter 12 to 16 mm)”.
On to `Cc1onc(-c2ccccc2)c1C(=O)N[C@@H]1C(=O)N2[C@@H]1SC(C)(C)[C@@H]2C(=O)O` [Oxacillin], for which, in experiment [2], the “Inhibition zone of antibiotic on ST4” value is “−” and the “Resistance of strain ST4SA to antibiotic” value was “resistant”.
As for `CO[C@H]1/C=C/O[C@@]2(C)Oc3c(C)c(O)c4c(O)c(c(/C=N/N5CCN(C)CC5)c(O)c4c3C2=O)NC(=O)/C(C)=C\C=C\[C@H](C)[C@H](O)[C@@H](C)[C@@H](O)[C@@H](C)[C@H](OC(C)=O)[C@@H]1C` [Rifampicin], in experiment [2], the “Inhibition zone of antibiotic on ST4” value is reported as “+++ (+++ = inhibition zone, diameter larger than 17 mm)”.
In the case of `[H]/N=C(/N)N[C@H]1[C@H](O)[C@@H](O)[C@H](O[C@@H]2O[C@@H](C)[C@](O)(C=O)[C@H]2O[C@@H]2O[C@@H](CO)[C@H](O)[C@@H](O)[C@@H]2NC)[C@@H](N/C(N)=N\[H])[C@@H]1O` [Streptomycin], in experiment [2], the “Inhibition zone of antibiotic on ST4” value is “−” and the “Resistance of strain ST4SA to antibiotic” value is “resistant”.
As to `CN(C)[C@@H]1C(O)=C(C(N)=O)C(=O)[C@@]2(O)C(O)=C3C(=O)c4c(O)cccc4[C@@](C)(O)[C@H]3C[C@@H]12` [Tetracycline], the zone of inhibition at 30 µg/disc in experiment [1] (setting [6]) was 35 mm. In addition, in experiment [2], the “Inhibition zone of antibiotic on ST4” value is recorded as “+++ (+++ = inhibition zone, diameter larger than 17 mm)”.
In the case of `CN[C@H](CC(C)C)C(=O)N[C@H]1C(=O)N[C@@H](CC(N)=O)C(=O)N[C@H]2C(=O)N[C@H]3C(=O)N[C@H](C(=O)N[C@H](C(=O)O)c4cc(O)cc(O)c4-c4cc3ccc4O)[C@H](O)c3ccc(c(Cl)c3)Oc3cc2cc(c3O[C@@H]2O[C@H](CO)[C@@H](O)[C@H](O)[C@H]2O[C@H]2C[C@](C)(N)[C@H](O)[C@H](C)O2)Oc2ccc(cc2Cl)[C@H]1O` [Vancomycin], the “Inhibition zone of antibiotic on ST4” value in experiment [2] is “++ (++ = inhibition zone, diameter 12 to 16 mm)”.
Consider Neomycin, for which, in experiment [2], the “Inhibition zone of antibiotic on ST4” value is “−” and the “Resistance of strain ST4SA to antibiotic” value is reported as “resistant”.
Consider Nisin [reference compound], for which the “Effect on target cells after blocking Lipid II with vancomycin” value in experiment [5] is recorded as “prevented the binding of Nisin to the Lipid II target site”.
Penicillin: the “Inhibition zone of antibiotic on ST4” value in experiment [2] is “+++ (+++ = inhibition zone, diameter larger than 17 mm)”.
Regarding Trimethoprim-sulfamethoxazole [TMP-SMX], in experiment [4], the “Decrease of cell numbers of strain ST4SA” value is “four”. Moreover, the “Number of viable cells of strain ST4SA” value is on record as 7 × 10^4 in experiment [4] (TMP-SMX 20/100 mg), 8 × 10^4 in experiment [4] (TMP-SMX 40/200 mg), 8 × 10^4 in experiment [4] (TMP-SMX 60/300 mg) and 1.8 × 10^4 in experiment [4] (TMP-SMX 80/400 mg).
